Results reported in patent US20170216360A1, “METHODS AND COMPOSITIONS FOR IMPROVING HOMING OF CELLS INCLUDING MESENCHYMAL STEM CELLS” (SANOFI, priority 2014, published 2017).
Counter-ions that a name gives are not always drawn.

Key:
TNF-α = TNF-α ELISA of ear homogenates after infusion of pretreated MSCs; format: in vivo, mouse
Description: (§1) To determine the impact of small molecule pretreatment on MSC therapeutic potential, ear swelling was measured. As a baseline, we measured ear thickness of all mice to be used using a caliper (Mitutoyo Inc.) and found no difference. Each measurement was taken 3 times with the average value recorded, and care taken to ensure minimal compression. Inflammation was then induced by injection of 30 μg LPS in 30 μL 0.9% saline solution into the pinna of the left ear. 24 hours later, n=3 mice of each condition were infused with no MSCs, 10e6/20 g body weight MSCs pretreated for 24 hours with 0.1% DMSO, or 10e6/20 g body weight MSCs pretreated for 24 hours with 3.0 μM small molecule compound 1929. Upon 24 hours after cell infusion, ear thickness was measured using a caliper as before. To evaluate TNF-α secretion, inflammation and MSC treatment was performed as above with n=4-6 mice for each condition. Mice were sacrificed 24 hours after cell administration and both ears were harvested. Ears were then ground in ice-cold extraction buffer (RIPA with 0.5% Tween-20) using a homogenizer. Homogenates were transferred to 1.5 mL tubes, centrifuged at 13,000×g for 10 minutes at 4° C., and the supernatant was stored at −80° C. until analysis. The level of mouse TNF-α level in the samples was quantified using an anti-mouse TNF-α ELISA kit (Biolegend, San Diego, Calif.).

MSCs = experiment: Cell viability assay, XTT; format: cell-based, human
Description: Pre-confluent MSCs were incubated with Ro-31-8425 at the indicated concentrations for 24 h or 72 h and cell viability was assessed via an XTT assay according to manufacturer's instructions (ATCC).
MSCs were pretreated with Ro-31-8425 for 24 h or 72 h, followed by quantification of MSC viability via XTT. (Y axis presents the percentage of viable cells compared to untreated control (cells incubated with 10% FBS-supplemented MEMa media), error bars represent standard deviation, n=3).

[1] = test system: LPS-induced inflamed mouse ear; experiment: Ear thickness in LPS-induced ear inflammation after infusion of pretreated MSCs; format: in vivo
Description: as §1

[2] = test system: CD11a surface expression on huMSCs; experiment: Medium throughput screen: CD11a surface expression on MSCs, PE-CY5 anti-CD11a antibody, laser-scanning fluorescence microplate cytometer; format: cell-based, human

SMILES: Cn1cc(C2=C(c3c4n(c5ccccc35)CCC(CN)C4)C(=O)NC2=O)c2ccccc21 (centres unmarked) [Compound 1929, 3-(8-aminomethyl-6,7,8,9-tetrahydro-pyrido[1,2-a]indol-10-yl)-4-(1-methyl-1H-indol-3-yl)-pyrrole-2,5-dione hydrochloride]
- Reduction of increased TNF-α levels in the inflamed ear (TNF-α; 24 h after pretreated MSCs): ~50%
- TNF-alpha levels in the inflamed ear, fold reduction (TNF-α; 24 hours after pretreated MSCs): 2.6±0.5 fold
- MSC viability (MSCs; 0.25 to 4 μM, 24 h pretreatment): did not significantly compromise cell viability
- Concentration levels at which toxicity to MSCs was seen (MSCs; 72 h pretreatment): greater than 4 μM
- Effect on ear swelling relative to control MSCs ([1]; 24 hours post administration): over 3 ×
- Reduction in ear thickness ([1]; 24 hours post administration of pretreated MSCs, vs no MSC): 20.0±5.3 μm
- Effect in reducing ear swelling relative to vehicle control MSCs ([1]; 24 h post-administration): greater than 3 fold
- Effect on the expression of other homing ligands [2]: no observed effect
